Laboratory results from US8569336B2, “Compounds for the treatment of inflammatory disorders” (priority 2008, dated 2013).
Where two headings read alike, the source gives them in different places.

Columns and labels:
[1] = Area under the curve determinations of plasma levels in rats (rrAUC), oral 10 mg/kg; type: in vivo; details: rat, read-out: RR AUC (rapid rat AUC, rrAUC)
[2] = system: TNF-α production from human whole blood; assay: Inhibition of TNF-α production from human whole blood (hWBA), LPS stimulated, ELISA; type: cell-based; details: Homo sapiens, TNF-α by ELISA, read-out: hWBA (IC50)
[3] = molecular target: T1, purified catalytic domain of recombinant human TACE (rhTACEc) (Homo sapiens, UniProt P78536, N452Q/S266A); assay: TACE kinetic assay: cleavage of internally quenched peptide substrate TNF-FRET 2 (Ki); type: biochemical; details: TNF-FRET 2 substrate
T1 construct: 6xHis (C); made in house; host or cells: baculovirus/Hi5 insect cells

[4] = plasma, blood collected 0.5-6 h post-dosing
[5] = human whole blood diluted 1:1, LPS stimulated
[6] = LPS-stimulated human whole blood
[7] = 3.5 h, human whole blood diluted 1:1, LPS stimulated, 3.5 h

T1 sequence (P78536 215-477 S266A/N452Q): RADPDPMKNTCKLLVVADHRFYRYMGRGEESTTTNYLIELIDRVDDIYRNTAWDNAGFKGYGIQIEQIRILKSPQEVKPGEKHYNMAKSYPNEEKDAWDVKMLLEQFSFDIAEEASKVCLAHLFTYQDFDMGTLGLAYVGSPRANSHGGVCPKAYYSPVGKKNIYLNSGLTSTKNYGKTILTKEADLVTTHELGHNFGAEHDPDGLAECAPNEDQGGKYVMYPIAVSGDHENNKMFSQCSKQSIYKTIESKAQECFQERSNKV

| Compound | AUC [1, 4] | IC50 [2, 5] | Ki ([3]; read-out: Ki) | AUC ([1]; plasma 0.5-6 h) | IC50 [2, 6] | Ki ([3]; Ki) | AUC ([1]; plasma 0.5-6 h post-dosing) | IC50 [2, 7] |
| --- | --- | --- | --- | --- | --- | --- | --- | --- |
| COc1ccc2c(c1)C(=O)N(C[C@@]1(c3cc4cnc(C)nc4o3)NC(=O)NC1=O)C2 [Compound 2309] | 18000 nM·h | 0.624 µM | 0.000594 µM |  |  |  |  |  |
| COc1ccc2c(c1F)C(=O)N(C[C@@]1(c3cc4nc(Cl)c(F)cc4o3)NC(=O)NC1=O)C2 [Compound 1328] |  |  |  | 5610 nM·h | 2.68 µM | 0.00049 µM |  |  |
| COc1ccc2c(c1)C(=O)N(C[C@@]1(c3cc4cnc(-c5ccncc5)cc4o3)NC(=O)NC1=O)C2 [Compound 2231] |  |  |  |  |  | 0.00054 µM | 2750 nM·h | 1.42 µM |
| COc1ccc2c(c1)C(=O)N(C[C@@]1(c3cc4nc(N5CCCC5=O)ccc4o3)NC(=O)NC1=O)C2 [Compound 2171] |  |  | 0.00067 µM |  |  |  | 9100 nM·h | 0.487 µM |
| COc1ccc2c(c1)C(=O)N(C[C@@]1(c3cc4nc(-c5cnn(CC(C)C)c5)ccc4o3)NC(=O)NC1=O)C2 [Compound 2115] |  |  | 0.000193 µM |  |  |  | 349 nM·h | 0.968 µM |
| COc1ccc2c(c1F)C(=O)N(C[C@@]1(c3cc4nc(N5C[C@H](O)CC5=O)ccc4o3)NC(=O)NC1=O)C2 [Compound 1511] |  |  | 0.0004 µM | 4010 nM·h | 0.0934 µM |  |  |  |
| COc1ccc2c(c1F)C(=O)N(C[C@@]1(c3cc4cnc(C)cc4o3)NC(=O)NC1=O)C2 [Compound 30] |  |  | 0.00038 µM |  |  |  | 26300 nM·h | 0.205 µM |
| COc1ccc2c(c1)C(=O)N(C[C@@]1(c3cc4cc(-c5ccncc5)cnc4o3)NC(=O)NC1=O)C2 [Compound 2255] |  |  | 0.000523 µM |  |  |  | 527 nM·h | 0.396 µM |
| COc1ccc2c(c1)C(=O)N(C[C@@]1(c3cc4nc(N5CC[C@@H](O)C5)ccc4o3)NC(=O)NC1=O)C2 [Compound 2166] |  |  | 0.000276 µM |  |  |  | 600 nM·h | 0.141 µM |
| CCN1CCN(c2ccc3oc([C@]4(CN5Cc6ccc(OC)c(F)c6C5=O)NC(=O)NC4=O)cc3n2)CC1=O [Compound 1707] |  |  | 0.0005 µM | 650 nM·h | 0.235 µM |  |  |  |
| COc1ccc2c(c1)C(=O)N(C[C@@]1(c3cc4nc(-c5ccc(C#N)nc5)ccc4o3)NC(=O)NC1=O)C2 [Compound 2472] | 536 nM·h | 1.61 µM | 0.000745 µM |  |  |  |  |  |
| COc1ccc2c(c1)C(=O)N(C[C@@]1(c3cc4cc(-c5ccccc5F)ncc4o3)NC(=O)NC1=O)C2 [Compound 2240] |  |  | 0.000714 µM |  |  |  | 12800 nM·h | 3.64 µM |
| COc1ccc2c(c1)C(=O)N(C[C@@]1(c3cc4nc(N5C(=O)CC[C@H]5CO)ccc4o3)NC(=O)NC1=O)C2 [Compound 2156] |  |  | 0.000976 µM |  |  |  | 33 nM·h | 0.325 µM |
| COc1ccc2c(c1F)C(=O)N(C[C@@]1(c3cc4nc(-c5ccc(N)nc5)c(F)cc4o3)NC(=O)NC1=O)C2 [Compound 1318] |  |  | 0.00036 µM | 863 nM·h | 0.087 µM |  |  |  |
| CNC(=O)Nc1ccc2oc([C@]3(CN4Cc5ccc(OC)cc5C4=O)NC(=O)NC3=O)cc2c1 [Compound 2227] |  |  | 0.000478 µM |  |  |  | 57 nM·h | 0.541 µM |
| CCOc1ccc2c(c1F)C(=O)N(C[C@@]1(c3cc4nc(N5CCN(CC)CC5)ccc4o3)NC(=O)NC1=O)C2 [Compound 903] |  |  | 0.000557 µM | 1000 nM·h | 0.193 µM |  |  |  |
| CNS(=O)(=O)c1ccc2oc([C@]3(CN4Cc5ccc(OC)cc5C4=O)NC(=O)NC3=O)cc2c1 [Compound 2481] | 890 nM·h | 0.31 µM | 0.00016 µM |  |  |  |  |  |
| CCNC(=O)N1CCc2oc([C@]3(CN4Cc5ccc(OC)cc5C4=O)NC(=O)NC3=O)cc2C1 [Compound 320] |  |  | 0.0004 µM | 11 nM·h | 0.309 µM |  |  |  |
| COc1ccc2c(c1)C(=O)N(C[C@@]1(c3cc4cc(F)ncc4o3)NC(=O)NC1=O)C2 [Compound 2304] | 9310 nM·h | 0.419 µM | 0.000276 µM |  |  |  |  |  |
| COc1ccc2c(c1)C(=O)N(C[C@@]1(c3cc4c5c(ccc4o3)CNC5=O)NC(=O)NC1=O)C2 [Compound 2503] | 304 nM·h | 0.17 µM | 0.00036 µM |  |  |  |  |  |

| Compound | AUC [1, 4] | IC50 [2, 5] | Ki ([3]; read-out: Ki) | AUC ([1]; plasma 0.5-6 h) | IC50 [2, 6] | Ki ([3]; Ki) | AUC ([1]; plasma 0.5-6 h post-dosing) | IC50 [2, 7] |
| --- | --- | --- | --- | --- | --- | --- | --- | --- |
| COc1ccc2c(c1)C(=O)N(C[C@@]1(c3cc4c(Cl)nccc4o3)NC(=O)NC1=O)C2 [Compound 2278] |  |  | 0.000637 µM |  |  |  | 12100 nM·h | 0.26 µM |
| COc1ccc2c(c1)C(=O)N(C[C@@]1(c3cc4cc(C5(C(N)=O)CC5)ccc4o3)NC(=O)NC1=O)C2 [Compound 2421] | 37 nM·h | 0.886 µM | 0.00038 µM |  |  |  |  |  |
| CCOC(=O)C1CCCN(c2ccc3oc([C@]4(CN5Cc6ccc(OC)cc6C5=O)NC(=O)NC4=O)cc3n2)C1 (stereo partly drawn) [Compound 1516] |  |  | 0.0005 µM | 41 nM·h | 1.74 µM |  |  |  |
| COc1ccc2c(c1F)C(=O)N(C[C@@]1(c3cc4cc(-c5cn[nH]c5)c(F)cc4o3)NC(=O)NC1=O)C2 [Compound 1187] |  |  | 0.00023 µM |  |  |  | 1070 nM·h | 0.286 µM |
| COc1ccc2c(c1F)C(=O)N(C[C@@]1(c3cc4nc(N5C(=O)CCC5C)ccc4o3)NC(=O)NC1=O)C2 (stereo partly drawn) [Compound 1510] |  |  | 0.0004 µM | 5190 nM·h | 0.263 µM |  |  |  |
| COc1ccc2c(c1)C(=O)N(C[C@@]1(c3cc4c(C(N)=O)nccc4o3)NC(=O)NC1=O)C2 [Compound 2401] | 1420 nM·h | 0.27 µM | 0.00058 µM |  |  |  |  |  |
| COc1ccc2c(c1)C(=O)N(C[C@@]1(c3cc4c(C5=NCCN5)nccc4o3)NC(=O)NC1=O)C2 [Compound 2274] |  |  | 0.002 µM |  |  |  | 33 nM·h | 2.24 µM |
| COc1ccc2c(c1F)C(=O)N(C[C@@]1(c3cc4ncc(C(N)=O)cc4o3)NC(=O)NC1=O)C2 [Compound 1908] |  |  | 0.00042 µM | 94 nM·h | 0.136 µM |  |  |  |
| COc1ccc2c(c1)C(=O)N(C[C@@]1(c3cc4cc(Cl)ncc4o3)NC(=O)NC1=O)C2 [Compound 2300] | 22700 nM·h | 0.902 µM | 0.00049 µM |  |  |  |  |  |
| COc1ccc2c(c1)C(=O)N(C[C@@]1(c3cc4nc(Nc5ccnn5C)ccc4o3)NC(=O)NC1=O)C2 [Compound 2131] |  |  | 0.000418 µM |  |  |  | 257 nM·h | 0.637 µM |
| CCNC(=O)Nc1ccc2oc([C@]3(CN4Cc5ccc(OC)cc5C4=O)NC(=O)NC3=O)cc2c1 [Compound 2229] |  |  |  |  |  | 0.000388 µM | 158 nM·h | 0.457 µM |
| COc1ccc2c(c1)C(=O)N(C[C@@]1(c3cc4nc(Nc5cnccn5)ccc4o3)NC(=O)NC1=O)C2 [Compound 2129] |  |  | 0.000395 µM |  |  |  | 1330 nM·h | 0.75 µM |
| COc1ccc2c(c1)C(=O)N(C[C@@]1(c3cc4nc(N5C[C@@H](O)CC5=O)ccc4o3)NC(=O)NC1=O)C2 [Compound 2154] |  |  | 0.000645 µM |  |  |  | 393 nM·h | 0.125 µM |
| COc1ccc2c(c1F)C(=O)N(C[C@@]1(c3cc4cccnc4o3)NC(=O)NC1=O)C2 [Compound 2271] |  |  | 0.00036 µM |  |  |  | 10600 nM·h | 0.217 µM |
| COc1ccc2c(c1)C(=O)N(C[C@@]1(c3cc4nc(N5CCN(C)CC5)ccc4o3)NC(=O)NC1=O)C2 [Compound 2108] |  |  |  |  |  | 0.000613 µM | 430 nM·h | 0.15 µM |
| COc1ccc2c(c1F)C(=O)N(C[C@@]1(c3cc4nc(C)c(N5CCC5=O)cc4o3)NC(=O)NC1=O)C2 [Compound 1922] |  |  | 0.00125 µM | 88 nM·h | 0.281 µM |  |  |  |
| COc1ccc2c(c1)C(=O)N(C[C@@]1(c3cc4cc(-c5cccnc5)ccc4o3)NC(=O)NC1=O)C2 [Compound 2195] |  |  |  |  |  | 0.000966 µM | 1160 nM·h | 2.12 µM |
| COc1ccc2c(c1F)C(=O)N(C[C@@]1(c3cc4nc(-c5ccc(N)nc5)ccc4o3)NC(=O)NC1=O)C2 [Compound 1716] |  |  | 0.00048 µM | 393 nM·h | 0.132 µM |  |  |  |
| COc1ccc2c(c1)C(=O)N(C[C@@]1(c3cc4ccc(N)nc4o3)NC(=O)NC1=O)C2 [Compound 2250] |  |  | 0.000433 µM |  |  |  | 391 nM·h | 0.218 µM |
| COc1ccc2c(c1)C(=O)N(C[C@@]1(c3cc4nc(N5CCN(CCN(C)C)CC5)ccc4o3)NC(=O)NC1=O)C2 [Compound 2142] |  |  | 0.000875 µM |  |  |  | 60 nM·h | 0.463 µM |
